Paper PMC8422164, “A comparison of three mucus-secreting airway cell lines (Calu-3, SPOC1 and UNCN3T) for use as biopharmaceutical models of the nose and lung” (European Journal of Pharmaceutics and Biopharmaceutics, 2021)

Legend:
[1] = system: UNCN3T cells; test: Cytokine release (ELISA) in response to inhaled drugs, UNCN3T
Procedure: SPOC1 or UNCN3T cells were seeded onto 24-well tissue culture treated plates, pre-coated with a 1/20 dilution of Geltrex™. Cells were seeded at 5 × 10^4 cells/well and grown to confluence in the appropriate maintenance medium. The cells were washed four times (20 min per wash) with TB appropriate to each cell line after which the cells were incubated for 30 min at 37 °C 5% CO2/95% air in control or drug solutions prepared in the appropriate transport buffer. […] Samples from UNCN3T cells (human origin) were analysed for IL-6 and IL-8. Cytokines and mucins were quantified using ELISAs (Legend Max, BioLegend San Diego, CA) according to the manufacturer’s instructions and ELLA respectively.

[2] = system: UNCN3T cells; test: Mucin secretion (ELLA) in response to inhaled drugs, UNCN3T on Geltrex-coated plastic; type: cell-based, human
Procedure: Wells were then washed three times with phosphate buffered saline (PBS) containing 0.05 % v/v Tween, 0.5 % w/v bovine gelatin type B (Sigma Aldrich), and blocked by incubation with PBS containing 1.0 % w/v gelatin at 37 °C for 1 h. […] Wells with samples from UNC[…] cells were incubated with biotinylated-Helix pomatia agglutinin prepared in the blocking solution. These wells were then washed before incubation with HRP-labelled streptavidin. Finally, plates containing samples from all cell lines were washed repeatedly and developed by the addition of substrate solution which consisted of o-phenylene diamine (Sigma […] tablet) prepared according to manufacturer's instructions, for 3 min at room temperature, after which the reaction was terminated by the addition of 20% (v/v) H2SO4. The absorbance at 492 nm was measured using an Ascent MultiskanTM plate reader (Thermo Fisher Scientific). The absorbance of the samples was compared with known mucin standards, purified by two rounds of density gradient ultracentrifugation, as described by […] et al., from the sputum of a volunteer with chronic obstructive pulmonary disease. Ethical approval was obtained from the University of Brighton School of Pharmacy and Biomolecular Sciences Ethics Committee, under reference PABSREC 0509, and informed consent was obtained from the volunteer.

[3] = system: Calu-3 cells; test: Enhancement of mucin secretion using AMP-PNP (Secretagogue model), ELLA, Calu-3; type: cell-based, human; conditions: Calu-3, AMP-PNP 100 μM, apical
Procedure: Cells cultured on inserts were arbitrarily divided into two groups termed 'low mucus' and 'high mucus'. […] Plates were kept on a shock-absorbing foam pad to prevent inadvertent mechanical stimulation of mucin secretion. […] Washes were stored at 4 °C until mucin secretion could be determined using an ELLA (on the day of treatment). At 10, 20 and 30 min, three further washes were performed and the average mucin content used to establish baseline mucin secretion. […] Each AMP-PNP/TB apical solution was changed (“like for like”) at 10-minute intervals. […] Wells were then washed three times with phosphate buffered saline (PBS) containing 0.05 % v/v Tween, 0.5 % w/v bovine gelatin type B (Sigma Aldrich), and blocked by incubation with PBS containing 1.0 % w/v gelatin at 37 °C for 1 h. […] Wells with samples from UNC[…] cells were incubated with biotinylated-Helix pomatia agglutinin prepared in the blocking solution. These wells were then washed before incubation with HRP-labelled streptavidin. […] The absorbance at 492 nm was measured using an Ascent MultiskanTM plate reader (Thermo Fisher Scientific). The absorbance of the samples was compared with known mucin standards, purified by two rounds of density gradient ultracentrifugation, as described by […] et al., from the sputum of a volunteer with chronic obstructive pulmonary disease. […]

[4] = system: UNCN3T cells; test: Enhancement of mucin secretion using AMP-PNP (Secretagogue model), ELLA, UNCN3T; type: cell-based, human
Procedure: Cells cultured on inserts were arbitrarily divided into two groups termed 'low mucus' and 'high mucus'. […] Plates were kept on a shock-absorbing foam pad to prevent inadvertent mechanical stimulation of mucin secretion. […] Washes were stored at 4 °C until mucin secretion could be determined using an ELLA (on the day of treatment). At 10, 20 and 30 min, three further washes were performed and the average mucin content used to establish baseline mucin secretion. […] Each AMP-PNP/TB apical solution was changed (“like for like”) at 10-minute intervals. […] Wells were then washed three times with phosphate buffered saline (PBS) containing 0.05 % v/v Tween, 0.5 % w/v bovine gelatin type B (Sigma Aldrich), and blocked by incubation with PBS containing 1.0 % w/v gelatin at 37 °C for 1 h. […] Wells with samples from UNC[…] cells were incubated with biotinylated-Helix pomatia agglutinin prepared in the blocking solution. These wells were then washed before incubation with HRP-labelled streptavidin. Finally, plates containing samples from all cell lines were washed repeatedly and developed by the addition of substrate solution which consisted of o-phenylene diamine (Sigma […] tablet) prepared according to manufacturer's instructions, for 3 min at room temperature, after which the reaction was terminated by the addition of 20% (v/v) H2SO4. The absorbance at 492 nm was measured using an Ascent MultiskanTM plate reader (Thermo Fisher Scientific). The absorbance of the samples was compared with known mucin standards, purified by two rounds of density gradient ultracentrifugation, as described by […] et al., from the sputum of a volunteer with chronic obstructive pulmonary disease. Ethical approval was obtained from the University of Brighton School of Pharmacy and Biomolecular Sciences Ethics Committee, under reference PABSREC 0509, and informed consent was obtained from the volunteer.

[5] = system: UNCN3T cells; test: TEER of UNCN3T cells before and after AMP-PNP; conditions: AMP-PNP 100 μM
[6] = UNCN3T control wells treated with 100 μM AMP-PNP at 100 min, by 120 min, data not shown

O=S(=O)([O-])[O-].[O]=[V+2] [VOSO4, Vanadium (IV) oxide sulfate]
IL-6 release, fold that of culture medium [1]: 66 fold
IL-6 release ([1]; VOSO4 20 μg mL^−1, 30 min, medium alone 1.9 ± 0.3): 124.0 ± 6.5 pg/mL
IL-8 release ([1]; VOSO4 20 μg mL^−1, 30 min, medium alone 12.5 ± 0.6): 251.1 ± 14.5 pg/mL

CCCC1O[C@@H]2C[C@H]3[C@@H]4CCC5=CC(=O)C=C[C@]5(C)[C@H]4[C@@H](O)C[C@]3(C)[C@]2(C(=O)CO)O1 (some centres unmarked) [budesonide]
Effect on IL-8 release ([1]; 20 μM, 30 min): significantly increased
Effect on mucin secretion ([2]; UNCN3T, inhaled drugs, vs culture medium alone): no effect

Nc1ncnc2c1ncn2[C@@H]1O[C@H](COP(=O)([O-])OP(=O)([O-])NP(=O)([O-])[O-])[C@@H](O)[C@H]1O.[Li+].[Li+].[Li+].[Li+] [AMP-PNP, adenylyl-imidodiphosphate, tetralithium salt]
Effect on quantity of mucin secreted [3]: no significant increase
Effect on quantity of mucin secreted ([3]; listed as adenylyl-imidodiphosphate): not
Fold increase in mucin secretion [4, 6]: 1.5 fold
Mucin level after AMP-PNP [4, 6]: 4.34 ± 0.83 ng/well
Fold increase in mucin secretion ([4]; UNCN3T, AMP-PNP 100 μM, vs baseline): 2 fold
Mucin level after AMP-PNP ([4]; UNCN3T, AMP-PNP 100 μM, baseline 2.91 ± 0.92): 5.44 ± 1.63 ng/well
Mucin secretion ([2]; UNCN3T on Geltrex-coated plastic, AMP-PNP 100 μM, 30 min, medium alone 0.94 ± 0.04): 3.22 ± 0.24 ng/well
Effect upon TEER [5]: no discernible effect
Mean TEER after treatment ([5]; before treatment 229 ± 20): 219 ± 19 Ω.cm^2
